This note sets out measurements from patent US20110014296A1, “Drug Delivery Nanodevice, its Preparation Method and Uses Thereof” (NATIONAL CHIAO TUNG UNIVERSITY, priority 2009, published 2011).

SMILES strings stand for the structures.

This test has as its system spontaneous SWDs of Long-Evans rats. Briefly: In vivo anti-epileptic therapy, spontaneous spike-wave discharges (SWDs). Also noted: species or system rat. The following applies: before and after application, ESM 28 mg/Kg i.p., ESM-SAIO and ESM-device 40 mg/Kg (FIG. 12). The method, then: Adult male Long-Evans and Wistar rats were used in this study. All rats were kept in a sound-attenuated room under a 12:12 hr light-dark cycle (07:00-19:00 lights on) with food and water provided ad libitum. The experimental procedures were reviewed and approved by the Institutional Animal Care and Use Committee. Briefly, the recording electrodes were implanted under pentobarbital anesthesia (60 mg/kg, i.p.). Subsequently, the rat was placed in a standard stereotaxic apparatus. In total, six stainless steel screws were driven bilaterally into the skull overlying the frontal (A +2.0, L 2.0 with reference to the bregma) and occipital (A −6.0, L 2.0) regions of the cortex to record cortical field potentials. A ground electrode was implanted 2 mm caudal to lambda. Dental cement was applied to fasten the connection socket to the surface of the skull. Following suturing to complete the surgery, animals were given an antibiotic (chlortetracycline) and housed individually in cages for recovery. […] To confirm the cortical focus theory of SWDs, a pharmacological epileptic rat model, low-dose pentylenetetrazol (PTZ) (20 mg/kg, i.p.) in Wistar rats, was also used. […] In this experiment, 1-hour spontaneous brain activity before the treatment (baseline) and another 1-hour spontaneous brain activity 30 minutes after the treatment were recorded, respectively. […]

With `CCC1(C)CC(=O)NC1=O` (centres unmarked) [ESM, ethosuximide], the SWD number entry is on record as “significantly reduced” and the “total SWD duration” value is recorded as “significantly reduced”.
